Values belong to the compound of their own block, whether it stands above or below them.
Tested on: 941728-121-R-J1-PDC complex spheroid viability
Assay: Anticancer human tumor 941728-121-R-J1-PDC patient-derived lung adenocarcinoma cell line growth inhibition [RAS]
Settings: for IC50: curve of first compound; for viability, T/C: stronger effect = lower value
In short: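 Multi-cell-type spheroids: tumor cells plus HUVEC endothelial cells and mesenchymal stem cells. RAS-pathway inhibitors were combined with targeted agents, each dosed in half-log steps down from clinical Cmax, or from 10 microM when Cmax was unknown.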

[1] = second compound 0.000949 µM, first compound 0.0316 µM
[2] = second compound 0.000949 µM, first compound 0.1 µM
[3] = second compound 0.000949 µM, first compound 0.316 µM
[4] = second compound 0.000949 µM, first compound 1 µM
[5] = second compound 0.003 µM, first compound 0.0316 µM
[6] = second compound 0.003 µM, first compound 0.1 µM
[7] = second compound 0.003 µM, first compound 0.316 µM
[8] = second compound 0.003 µM, first compound 1 µM
[9] = second compound 0.00949 µM, first compound 0.0316 µM
[10] = second compound 0.00949 µM, first compound 0.1 µM
[11] = second compound 0.00949 µM, first compound 0.316 µM
[12] = second compound 0.00949 µM, first compound 1 µM
[13] = second compound 0.03 µM, first compound 0.0316 µM
[14] = second compound 0.03 µM, first compound 0.1 µM
[15] = second compound 0.03 µM, first compound 0.316 µM
[16] = second compound 0.03 µM, first compound 1 µM
[17] = second compound 0.0949 µM, first compound 0.0316 µM
[18] = second compound 0.0949 µM, first compound 0.1 µM
[19] = second compound 0.0949 µM, first compound 0.316 µM
[20] = second compound 0.0949 µM, first compound 1 µM
[21] = second compound 0.3 µM, first compound 0.0316 µM
[22] = second compound 0.3 µM, first compound 0.1 µM
[23] = second compound 0.3 µM, first compound 0.316 µM
[24] = second compound 0.3 µM, first compound 1 µM
[25] = second compound 0.000949 µM, first compound 3.16 µM
[26] = second compound 0.000949 µM, first compound 10 µM
[27] = second compound 0.003 µM, first compound 3.16 µM
[28] = second compound 0.003 µM, first compound 10 µM
[29] = second compound 0.00949 µM, first compound 3.16 µM
[30] = second compound 0.00949 µM, first compound 10 µM
[31] = second compound 0.03 µM, first compound 3.16 µM
[32] = second compound 0.03 µM, first compound 10 µM
[33] = second compound 0.0949 µM, first compound 3.16 µM
[34] = second compound 0.0949 µM, first compound 10 µM
[35] = second compound 0.3 µM, first compound 3.16 µM
[36] = second compound 0.3 µM, first compound 10 µM
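Note: spheroids exposed to compounds for 7 days before readout.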
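Throughout, for viability, T/C: 100% = DMSO vehicle control viability.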

- IC50 (second compound 0.000949 µM): < 3.16 nM
- IC50 (second compound 0.003 µM): < 3.16 nM
- IC50 (second compound 0.00949 µM): < 3.16 nM
- IC50 (second compound 0.03 µM): < 3.16 nM
- IC50 (second compound 0.0949 µM): < 3.16 nM
- IC50 (second compound 0.3 µM): < 3.16 nM
Compound: CCN1CCN(Cc2ccc(Nc3ncc(F)c(-c4cc(F)c5nc(C)n(C(C)C)c5c4)n3)nc2)CC1 + CCn1c(-c2cc(N3CCN(C)CC3)cnc2C(C)OC)c2c3cc(ccc31)-c1csc(n1)CC(NC(=O)C1CC1C)C(=O)N1CCCC(N1)C(=O)OCC(C)(C)C2
- viability, T/C (second compound 0.000949 µM, first compound 0.00316 µM): 27%
- viability, T/C (second compound 0.000949 µM, first compound 0.01 µM): 29.4%
- viability, T/C [1]: 18.9%
- viability, T/C [2]: 27.1%
- viability, T/C [3]: 23.3%
- viability, T/C [4]: 16.6%
- viability, T/C (second compound 0.003 µM, first compound 0.00316 µM): 22.8%
- viability, T/C (second compound 0.003 µM, first compound 0.01 µM): 19.8%
- viability, T/C [5]: 14.4%
- viability, T/C [6]: 18.9%
- viability, T/C [7]: 17.7%
- viability, T/C [8]: 9.4%
- viability, T/C (second compound 0.00949 µM, first compound 0.00316 µM): 15.1%
- viability, T/C (second compound 0.00949 µM, first compound 0.01 µM): 13.4%
- viability, T/C [9]: 13.7%
- viability, T/C [10]: 11.1%
- viability, T/C [11]: 12.1%
- viability, T/C [12]: 10.4%
- viability, T/C (second compound 0.03 µM, first compound 0.00316 µM): 13.2%
- viability, T/C (second compound 0.03 µM, first compound 0.01 µM): 14.1%
- viability, T/C [13]: 11.8%
- viability, T/C [14]: 10.1%
- viability, T/C [15]: 6.16%
- viability, T/C [16]: 11.3%
- viability, T/C (second compound 0.0949 µM, first compound 0.00316 µM): 13.4%
- viability, T/C (second compound 0.0949 µM, first compound 0.01 µM): 11.8%
- viability, T/C [17]: 10.1%
- viability, T/C [18]: 9.14%
- viability, T/C [19]: 7.16%
- viability, T/C [20]: 9.08%
- viability, T/C (second compound 0.3 µM, first compound 0.00316 µM): 11.3%
- viability, T/C (second compound 0.3 µM, first compound 0.01 µM): 11.9%
- viability, T/C [21]: 11.7%
- viability, T/C [22]: 8.41%
- viability, T/C [23]: 6.3%
- viability, T/C [24]: 10.6%

- IC50 (second compound 0.000949 µM): < 31.6 nM
- IC50 (second compound 0.003 µM): < 31.6 nM
- IC50 (second compound 0.00949 µM): < 31.6 nM
- IC50 (second compound 0.03 µM): < 31.6 nM
- IC50 (second compound 0.0949 µM): < 31.6 nM
- IC50 (second compound 0.3 µM): < 31.6 nM
Compound: Cc1nc(N2CCC3(CC2)COC(C)C3N)c(CO)nc1Sc1ccnc(N)c1Cl (stereo unspecified) + CCn1c(-c2cc(N3CCN(C)CC3)cnc2C(C)OC)c2c3cc(ccc31)-c1csc(n1)CC(NC(=O)C1CC1C)C(=O)N1CCCC(N1)C(=O)OCC(C)(C)C2
- viability, T/C [1]: 25.1%
- viability, T/C [2]: 21%
- viability, T/C [3]: 14.6%
- viability, T/C [4]: 19.2%
- viability, T/C [25]: 18.7%
- viability, T/C [26]: 12.9%
- viability, T/C [5]: 19.2%
- viability, T/C [6]: 17.7%
- viability, T/C [7]: 13.3%
- viability, T/C [8]: 13.4%
- viability, T/C [27]: 13.6%
- viability, T/C [28]: 9.72%
- viability, T/C [9]: 14.6%
- viability, T/C [10]: 12%
- viability, T/C [11]: 12.8%
- viability, T/C [12]: 13.6%
- viability, T/C [29]: 11.9%
- viability, T/C [30]: 11%
- viability, T/C [13]: 11.9%
- viability, T/C [14]: 15.5%
- viability, T/C [15]: 13.9%
- viability, T/C [16]: 13.2%
- viability, T/C [31]: 9.2%
- viability, T/C [32]: 13.5%
- viability, T/C [17]: 13.3%
- viability, T/C [18]: 14.4%
- viability, T/C [19]: 12.8%
- viability, T/C [20]: 14.3%
- viability, T/C [33]: 9.5%
- viability, T/C [34]: 11.1%
- viability, T/C [21]: 13.1%
- viability, T/C [22]: 12.8%
- viability, T/C [23]: 12.6%
- viability, T/C [24]: 11.2%
- viability, T/C [35]: 12%
- viability, T/C [36]: 13.1%

- IC50 (second compound 0.000949 µM): < 31.6 nM
- IC50 (second compound 0.003 µM): < 31.6 nM
- IC50 (second compound 0.00949 µM): < 31.6 nM
- IC50 (second compound 0.03 µM): < 31.6 nM
- IC50 (second compound 0.0949 µM): < 31.6 nM
- IC50 (second compound 0.3 µM): < 31.6 nM
Compound: NC1c2ccccc2OC12CCN(c1cnc3c(N4CCCc5ncccc54)n[nH]c3n1)CC2 (stereo unspecified) + CCn1c(-c2cc(N3CCN(C)CC3)cnc2C(C)OC)c2c3cc(ccc31)-c1csc(n1)CC(NC(=O)C1CC1C)C(=O)N1CCCC(N1)C(=O)OCC(C)(C)C2
- viability, T/C [1]: 22%
- viability, T/C [2]: 17.4%
- viability, T/C [3]: 13.4%
- viability, T/C [4]: 16.5%
- viability, T/C [25]: 16.6%
- viability, T/C [26]: 12%
- viability, T/C [5]: 15.2%
- viability, T/C [6]: 12.4%
- viability, T/C [7]: 10.6%
- viability, T/C [8]: 14%
- viability, T/C [27]: 13.8%
- viability, T/C [28]: 10.3%
- viability, T/C [9]: 13.7%
- viability, T/C [10]: 10.5%
- viability, T/C [11]: 12.5%
- viability, T/C [12]: 10.8%
- viability, T/C [29]: 9.25%
- viability, T/C [30]: 9.84%
- viability, T/C [13]: 11.9%
- viability, T/C [14]: 12.4%
- viability, T/C [15]: 12.1%
- viability, T/C [16]: 11.1%
- viability, T/C [31]: 11.3%
- viability, T/C [32]: 15.1%
- viability, T/C [17]: 11.4%
- viability, T/C [18]: 13.5%
- viability, T/C [19]: 12.8%
- viability, T/C [20]: 12.2%
- viability, T/C [33]: 10.5%
- viability, T/C [34]: 15.2%
- viability, T/C [21]: 11.6%
- viability, T/C [22]: 12.1%
- viability, T/C [23]: 10.4%
- viability, T/C [24]: 10.9%
- viability, T/C [35]: 10.4%
- viability, T/C [36]: 15.5%

Source: PubChem BioAssay AID2060896 (Molecular Pharmacology Branch, DTP, NCI, 2025)
